The text below walks through data of patent publication US20130345419A1, “AZOLE DERIVATIVE” (TAISHO PHARMACEUTICAL CO., LTD., priority 2011, published 2013).

The term IC50 denotes the concentration at which inhibition is half-maximal.

Each structure is given as a SMILES string.

The target of the assay is T1, human recombinant FKBP12 (Homo sapiens, UniProt P62942).
T1 construct: purchased Sigma F-5398
T1 sequence (P62942 whole entry): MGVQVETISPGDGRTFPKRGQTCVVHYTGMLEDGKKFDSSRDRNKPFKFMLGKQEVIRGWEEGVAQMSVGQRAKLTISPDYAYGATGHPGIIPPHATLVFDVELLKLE
As to the kind of experiment: Test 1: immunophilin FKBP12 rotamase (peptidylprolyl isomerase) inhibiting activity. The note with it: 12 nM human recombinant FKBP12, substrate succinyl-Ala-Phe-Pro-Phe-paranitroanilide 48 μM, 4° C.; read-out: PKBP12 rotamase inhibiting activity IC50. It counts as biochemical. The method, then: (Test 1) Test for Measuring Immunophilin FKBP12 Rotamase Activity
The rotamase (peptidylprolyl isomerase) inhibiting activity of each test compound was measured by a known method (Harding et al., Nature 341, 758-760, 1989; Holts et al., J. Am. Chem. Soc. 115, 9925-9938, 1993.) To be more specific, a plastic cuvette was charged with 35 mM HEPES (pH 7.8), 12 nM human recombinant FKBP12 (Sigma, F-5398), 0.4 mg/mL α-chymotrypsin, and a test compound dissolved in DMSO at varying concentrations (DMSO's final concentration was 0.1%.) Subsequently, 24 mM of the substrate peptide, succinyl-Ala-Phe-Pro-Phe-paranitroanilide, as dissolved in trifluoroethanol containing 500 mM of LiCl was added to give a final concentration of 48 μM, whereupon reaction started. The reaction was carried out at 4° C. and the change in absorbance at 390 nm accompanying the liberation of the paranitroaniline product was monitored. A calculated initial rate minus the corresponding value in the absence of the enzyme was used as an index of rotamase activity. The rotamase inhibiting activity of a test compound was expressed in relative values (%) with respect to the control value of rotamase activity in the absence of the compound, and the concentration of the compound at which it was capable of inhibiting rotamase activity by 50% was calculated as an IC50 value from its concentration response curve.
As to `CC1(C)CC(C)(C)CC(O)(C(F)(F)C(=O)N2CCC[C@H]2c2cc(COc3ccccn3)on2)C1` [Compound 54, (S)-2,2-Difluoro-2-(1-hydroxy-3,3,5,5-tetramethylcyclohexyl)-1-(2-(5-((pyridin-2-yloxy)methyl)isoxazol-3-yl)pyrrolidin-1-yl)ethanone], the IC50 turned out to be 290 nM.

Regarding `COc1ccc(OCc2cnc([C@@H]3CCCN3C(=O)C(F)(F)C3(O)CC(C)(C)CC(C)(C)C3)s2)cc1OC` [Compound 7, (S)-1-(2-(5-((3,4-Dimethoxyphenoxy)methyl)thiazol-2-yl)pyrrolidin-1-yl)-2,2-difluoro-2-(1-hydroxy-3,3,5,5-tetramethylcyclohexyl)ethanone], the IC50 was 500 to 1000 nM.

As for `CC1(C)CC(C)(C)CC(O)(C(F)(F)C(=O)N2CCC[C@H]2c2nnc(Cc3cccnc3)o2)C1` [Compound 34], the IC50 was in the range of 500 to 1000 nM.

Take `COc1ccc(OCc2nc([C@@H]3CCCN3C(=O)C(F)(F)C3(O)CC(C)(C)CC(C)(C)C3)n[nH]2)cc1OC` [Compound 5, (S)-1-(2-(5-((3,4-Dimethoxyphenoxy)methyl)-4H-1,2,4-triazol-3-yl)pyrrolidin-1-yl)-2,2-difluoro-2-(1-hydroxy-3,3,5,5-tetramethylcyclohexyl)ethanone]: the IC50 is 119 nM.

With `COc1ccc(OCc2cc([C@@H]3CCCN3C(=O)C(F)(F)C3(O)CC(C)(C)CC(C)(C)C3)nn2C)cc1OC` [Compound 9, (S)-1-(2-(5-((3,4-Dimethoxyphenoxy)methyl)-1-methyl-1H-pyrazol-3-yl)pyrrolidin-1-yl)-2,2-difluoro-2-(1-hydroxy-3,3,5,5-tetramethylcyclohexyl)ethanone], the IC50 was in the range of 500 to 1000 nM.

`CC1(C)CC(C)(C)CC(O)(C(F)(F)C(=O)N2CCC[C@H]2c2cc(COc3cnccn3)on2)C1` [Compound 55, (S)-2,2-Difluoro-2-(1-hydroxy-3,3,5,5-tetramethylcyclohexyl)-1-(2-(5-((pyrazin-2-yloxy)methyl)isoxazol-3-yl)pyrrolidin-1-yl)ethanone]: the IC50 was determined as 228 nM.

`CC1(C)CC(C)(C)CC(O)(C(F)(F)C(=O)N2CCC[C@H]2c2nnc(CO)o2)C1` [Compound 22, (S)-2,2-Difluoro-2-(1-hydroxy-3,3,5,5-tetramethylcyclohexyl)-1-(2-(5-(hydroxymethy)-1,3,4-oxadiazol-2-yl)pyrrolidin-1-yl)ethanone]: the IC50 was 1000 to 2000 nM.

As to `COc1cc(OCc2nnc([C@@H]3CCCN3C(=O)C(F)(F)C3(O)CC(C)(C)CC(C)(C)C3)o2)cc(OC)c1OC` [Compound 20], the IC50 was found to be 276 nM.

`CC1(C)CC(C)(C)CC(O)(C(F)(F)C(=O)N2CCC[C@H]2c2nnc(COc3ccc(CO)cc3)o2)C1` [Compound 19]: the IC50 was 229 nM.

Consider `CC1(C)CC(C)(C)CC(O)(C(F)(F)C(=O)N2CCC[C@H]2c2nnc(COS(C)(=O)=O)o2)C1` [Compound 23, (S)-(5-(1-(2,2-Difluoro-2-(1-hydroxy-3,3,5,5-tetramethylcyclohexyl)acetyl)pyrrolidin-2-yl)-1,3,4-oxadiazol-2-yl)methyl methanesulfonate], for which the IC50 is 1000 to 2000 nM.

With `CC1(C)CC(C)(C)CC(O)(C(F)(F)C(=O)N2CCC[C@H]2c2cc(CN3CCOCC3)on2)C1` [Compound 47], the IC50 stood at 254 nM.

As to `COc1ccc(OCc2nnc([C@@H]3CCCN3C(=O)C(F)(F)C3(O)CC(C)(C)CC(C)(C)C3)o2)cc1` [Compound 24], the IC50 was found to be 218 nM.

As to `Cc1nnc([C@@H]2CCCN2C(=O)C(F)(F)C2(O)CC(C)(C)CC(C)(C)C2)o1` [Compound 27], the IC50 is 500 to 1000 nM.

As for `CC1(C)CC(C)(C)CC(O)(C(F)(F)C(=O)N2CCC[C@H]2c2nnc(COc3ccccc3)o2)C1` [Compound 29, (S)-2,2-Difluoro-2-(1-hydroxy-3,3,5,5-tetramethylcyclohexyl)-1-(2-(5-(phenoxymethyl)-1,3,4-oxadiazol-2-yl)pyrrolidin-1-yl)ethanone], the IC50 came to 62 nM.

In the case of `CC1(C)CC(C)(C)CC(O)(C(F)(F)C(=O)N2CCC[C@H]2c2cc(CCc3cccnc3)on2)C1` [Compound 35], the IC50 came to 45 nM.

For the compound `COc1ccc(OCc2cc([C@@H]3CCCN3C(=O)C(F)(F)C3(O)CC(C)(C)CC(C)(C)C3)n[nH]2)cc1OC` [Compound 11, (S)-1-(2-(5-((3,4-Dimethoxyphenoxy)methyl)-1H-pyrazol-3-yl)pyrrolidin-1-yl)-2,2-difluoro-2-(1-hydroxy-3,3,5,5-tetramethylcyclohexyl)ethanone], the IC50 is 235 nM.

For the compound `COc1ccc(Cc2nnc([C@@H]3CCCN3C(=O)C(F)(F)C3(O)CC(C)(C)CC(C)(C)C3)o2)cc1OC` [Compound 16], the IC50 turned out to be 142 nM.

`CN(C)Cc1cc([C@@H]2CCCN2C(=O)C(F)(F)C2(O)CC(C)(C)CC(C)(C)C2)no1` [Compound 46, (S)-1-(2-(5-((Dimethylamino)methyl)isoxazol-3-yl)pyrrolidin-1-yl)-2,2-difluoro-2-(1-hydroxy-3,3,5,5-tetramethylcyclohexyl)ethanone]: the IC50 came to 310 nM.

With `COc1ccc(OCc2nc([C@@H]3CCCN3C(=O)C(F)(F)C3(O)CC(C)(C)CC(C)(C)C3)nn2C)cc1OC` [Compound 8, (S)-1-(2-(5-((3,4-Dimethoxyphenoxy)methyl)-1-methyl-1H-1,2,4-triazol-3-yl)pyrrolidin-1-yl)-2,2-difluoro-2-(1-hydroxy-3,3,5,5-tetramethylcyclohexyl)ethanone], the IC50 was 189 nM.

For the compound `COc1ccc(OCc2cc([C@@H]3CCCN3C(=O)C(F)(F)C3(O)CC(C)(C)CC(C)(C)C3)on2)cc1OC` [Compound 10, (S)-1-(2-(3-((3,4-Dimethoxyphenoxy)methyl)isoxazol-5-yl)pyrrolidin-1-yl)-2,2-difluoro-2-(1-hydroxy-3,3,5,5-tetramethylcyclohexyl)ethanone], the IC50 lay within 500 to 1000 nM.

As for `COc1ccc(CCCc2nnc([C@@H]3CCCN3C(=O)C(F)(F)C3(O)CC(C)(C)CC(C)(C)C3)o2)cc1OC` [Compound 14], the IC50 was 500 to 1000 nM.

Regarding `COc1ccc(OCc2nnc([C@@H]3CCCN3C(=O)C(F)(F)C3(O)CC(C)(C)CC(C)(C)C3)o2)cc1OC` [Compound 2, (S)-1-(2-(5-((3,4-Dimethoxyphenoxy)methyl)-1,3,4-oxadiazol-2-yl)pyrrolidin-1-yl)-2,2-difluoro-2-(1-hydroxy-3,3,5,5-tetramethylcyclohexyl)ethanone], the half-maximal inhibitory concentration (IC50) came out at 62 nM.

In the case of `CC1(C)CC(C)(C)CC(O)(C(F)(F)C(=O)N2CCC[C@H]2c2cc(COc3ccncc3)on2)C1` [Compound 57, (S)-2,2-Difluoro-2-(1-hydroxy-3,3,5,5-tetramethylcyclohexyl)-1-(2-(5-((pyridin-4-yloxy)methyl)isoxazol-3-yl)pyrrolidin-1-yl)ethanone], the IC50 amounted to 79 nM.

Consider `CC1(C)CC(C)(C)CC(O)(C(F)(F)C(=O)N2CCC[C@H]2c2cc(Cn3ccccc3=O)on2)C1` [Compound 60, (S)-1-((3-(1-(2,2-Difluoro-2-(1-hydroxy-3,3,5,5-tetramethylcyclohexyl)acetyl)pyrrolidin-2-yl)isoxazol-5-yl)methyl)pyridin-2(1H)-one], for which the half-maximal inhibitory concentration (IC50) came out at 376 nM.

As to `CC1(C)CC(C)(C)CC(O)(C(F)(F)C(=O)N2CCC[C@H]2c2cc(Cn3cnccc3=O)on2)C1` [Compound 62, (S)-3-((3-(1-(2,2-Difluoro-2-(1-hydroxy-3,3,5,5-tetramethylcyclohexyl)acetyl)pyrrolidin-2-yl)isoxazol-5-yl)methyl)pyrimidin-4(3H)-one], the IC50 turned out to be 210 nM.
